Consider 3 compounds from paper PMC8069330, “Chirality of Novel Bitopic Agonists Determines Unique Pharmacology at the Dopamine D3 Receptor” (Biomolecules, 2021).

Each structure is given as a SMILES string.

What all share (assay type): cell-based
In assay [1] the target is T1, D3R (Homo sapiens, UniProt P35462).
T1 construct: expressed in transfected cells; host or cells: HEK293T
The experiment in a line: BRET-based β-arrestin recruitment assay at D3R (10 min). The note with it: D3R; for EC50: read-out: β-arrestin Recruitment pEC50 ± SEM (converted). A general note: Bioluminescence resonance energy transfer reports proximity on the nanometre scale.
Target sequence in this assay (P35462 whole entry): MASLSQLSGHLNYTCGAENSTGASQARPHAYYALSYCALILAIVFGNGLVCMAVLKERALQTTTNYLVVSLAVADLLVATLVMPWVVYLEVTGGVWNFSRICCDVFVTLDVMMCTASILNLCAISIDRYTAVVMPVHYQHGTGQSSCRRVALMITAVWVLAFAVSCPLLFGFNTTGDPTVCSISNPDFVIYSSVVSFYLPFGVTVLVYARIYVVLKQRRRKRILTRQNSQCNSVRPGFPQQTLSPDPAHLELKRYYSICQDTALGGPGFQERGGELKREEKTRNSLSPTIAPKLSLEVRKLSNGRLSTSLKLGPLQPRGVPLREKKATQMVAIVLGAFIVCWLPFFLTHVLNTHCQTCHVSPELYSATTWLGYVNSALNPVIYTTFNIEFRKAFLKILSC
Target sequence in this assay (P32121 whole entry partner): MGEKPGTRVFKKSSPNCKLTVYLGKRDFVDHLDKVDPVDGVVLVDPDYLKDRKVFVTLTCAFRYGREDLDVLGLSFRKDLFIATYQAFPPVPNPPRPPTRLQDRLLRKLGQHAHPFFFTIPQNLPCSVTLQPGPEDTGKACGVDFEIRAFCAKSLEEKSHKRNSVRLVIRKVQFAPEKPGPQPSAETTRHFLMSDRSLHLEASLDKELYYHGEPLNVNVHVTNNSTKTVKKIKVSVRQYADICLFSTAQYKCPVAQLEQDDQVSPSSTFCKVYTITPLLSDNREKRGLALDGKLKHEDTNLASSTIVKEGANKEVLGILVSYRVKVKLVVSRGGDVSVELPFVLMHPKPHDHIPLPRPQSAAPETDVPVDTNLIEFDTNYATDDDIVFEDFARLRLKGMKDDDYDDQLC

For assay [2], the target named is T2, D2R (Homo sapiens, UniProt P14416).
T2 construct: expressed in transfected cells; host or cells: HEK293T
Description: BRET-based Go protein activation assay at D2R (10 min). As to conditions: 10 min; for EC50: read-out: Go Protein Activation Assay pEC50 ± SEM (converted); for Bias Factors D2R: Go protein vs β-arrestin, log10(Emax/EC50)G protein − log10(Emax/EC50)β arrestin.
Target sequence in this assay (P14416 whole entry): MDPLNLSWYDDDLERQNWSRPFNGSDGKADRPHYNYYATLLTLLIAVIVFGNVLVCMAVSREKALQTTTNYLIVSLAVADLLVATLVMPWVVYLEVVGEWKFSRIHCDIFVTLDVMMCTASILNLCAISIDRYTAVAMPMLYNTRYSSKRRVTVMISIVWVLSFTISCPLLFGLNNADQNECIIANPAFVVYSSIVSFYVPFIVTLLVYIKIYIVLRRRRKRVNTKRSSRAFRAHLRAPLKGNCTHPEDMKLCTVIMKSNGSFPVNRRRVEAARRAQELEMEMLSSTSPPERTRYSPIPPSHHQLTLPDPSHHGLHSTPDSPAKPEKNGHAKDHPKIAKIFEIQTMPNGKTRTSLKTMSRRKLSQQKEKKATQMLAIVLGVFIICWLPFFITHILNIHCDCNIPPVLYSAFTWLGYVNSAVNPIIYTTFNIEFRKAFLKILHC

Assay [3] deals with T1, D3R. The experiment in a line: BRET-based Go protein activation assay at D3R (10 min). The note with it: for Selectivity (D2R/D3R) Go Protein Activation: D3R over D2R selectivity; for EC50: read-out: Go Protein Activation Assay pEC50 ± SEM (converted); for Bias Factors D3R: Go protein vs β-arrestin, log10(Emax/EC50)G protein − log10(Emax/EC50)β arrestin.
Target sequence in this assay (P35462 whole entry): as the sequence (P35462 whole entry) above
For assay [4], the target named is T2, D2R. Description: BRET-based β-arrestin recruitment assay at D2R (10 min). As to conditions: D2R, 10 min; for EC50: read-out: β-arrestin Recruitment pEC50 ± SEM (converted).
Target sequence in this assay (P14416 whole entry): as the sequence (P14416 whole entry) above
Target sequence in this assay (P32121 whole entry partner): as the sequence (P32121 whole entry partner) above

Take `C[C@H]1COC(c2ccc(N)nc2)CN1CCCCOc1ccc2c(c1)NC(=O)CC2` (mixture of isomers) [rac-AB04-35]: at D3R [1], the “β-arrestin Recruitment Change Emax over Quinpirole” value (“β-arrestin Recruitment Change Emax” for short) was −5.2, the “β-arrestin Recruitment Emax ± SEM (% of Quinpirole)” value is 94.8 ± 3.7 ^δδ % of Quinpirole, the “β-arrestin Recruitment Fold Potency over Quinpirole” value (from here on “β-arrestin Recruitment Fold Potency”) was 0.009 fold and the EC50 was 490 nM. Also, at D2R [2] (D2R), the “Go Protein Activation Assay Change Emax over Quinpirole” value is −24.10, the “Go Protein Activation Assay Emax ± SEM (% of Quinpirole)” value is 75.9 ± 5.3 % of Quinpirole, the “Go Protein Activation Assay Fold Potency over Quinpirole” value is 0.10 fold and the EC50 was 331 nM. For the same compound, on D2R [2], the “Bias Factors D2R” value is 0.6. Besides, on D3R [3] (D3R), the “Go Protein Activation Assay Change Emax over Quinpirole” value is −6.1, the “Go Protein Activation Assay Emax ± SEM (% of Quinpirole)” value is on record as 93.9 ± 3.0 ^δδδδ % of Quinpirole, the “Go Protein Activation Assay Fold Potency over Quinpirole” value is 0.051 fold and the EC50 is 57.5 nM. At D3R [3], the “Selectivity (D2R/D3R) Go Protein Activation” value is 5.8 fold and the “Bias Factors D3R” value came out at 0.9. On D2R [4], the “β-arrestin Recruitment Change Emax” value is 2.80, the “β-arrestin Recruitment Emax ± SEM (% of Quinpirole)” value is listed as 102.8 ± 2.5 % of Quinpirole, the “β-arrestin Recruitment Fold Potency” value came out at 0.06 fold and the EC50 is 1820 nM.

Regarding `C[C@H]1CO[C@H](c2ccc(N)nc2)CN1CCCCOc1ccc2c(c1)NC(=O)CC2` [AB04-95], on D3R [1], the “D3R mediated β-arrestin recruitment (result in words)” value is listed as “near complete abolishment”. The “Activity in D2R Go protein activation (result in words)” value on D2R [2] (D2R) is given as “did not show any activity”. In addition, the “D3R mediated Go protein activation (result in words)” value on D3R [3] (D3R) is given as “near complete abolishment”. Besides, the “Activity in D2R β-arrestin recruitment (result in words)” value on D2R [4] was “did not show any activity”.

For the compound `C[C@H]1CO[C@@H](c2ccc(N)nc2)CN1CCCCOc1ccc2c(c1)NC(=O)CC2` [AB04-96], at D3R [1], the “β-arrestin Recruitment Change Emax” value is on record as 4.0, the “β-arrestin Recruitment Fold Potency” value is 0.025 fold and the EC50 is 174 nM. For the same compound, on D2R [2] (D2R), the “Go Protein Activation Assay Change Emax over Quinpirole” value came to 2.70, the “Go Protein Activation Assay Emax ± SEM (% of Quinpirole)” value is 102.7 ± 4.0 % of Quinpirole, the “Go Protein Activation Assay Fold Potency over Quinpirole” value came to 0.66 fold and the EC50 was 52.5 nM. Also, the “Bias Factors D2R” value on D2R [2] was 1.1. At D3R [3] (D3R), the “Go Protein Activation Assay Change Emax over Quinpirole” value is listed as 0.4, the “Go Protein Activation Assay Emax ± SEM (% of Quinpirole)” value is 100.4 ± 2.7 ^δδδδ % of Quinpirole, the “Go Protein Activation Assay Fold Potency over Quinpirole” value is on record as 0.158 fold and the EC50 was 18.6 nM. Besides, on D3R [3], the “Selectivity (D2R/D3R) Go Protein Activation” value is on record as 2.8 fold and the “Bias Factors D3R” value is listed as 1.0. In addition, at D2R [4], the “Higher efficacy compared to quinpirole in D2R mediated β-arrestin recruitment” value is recorded as ~ 22%, the “β-arrestin Recruitment Change Emax” value came out at 21.6, the “β-arrestin Recruitment Emax ± SEM (% of Quinpirole)” value is 121.6 ± 8.2 % of Quinpirole and the “β-arrestin Recruitment Fold Potency” value turned out to be 0.16 fold. Moreover, the EC50 at D2R [4] was 724 nM.
